Results from patent publication US20240263153A1, “INTEGRASE COMPOSITIONS AND METHODS” (Flagship Pioneering Innovations Vi, LLC, priority 2021, published 2024).

These compounds were tested on mouse liver (assay: LNP-mediated delivery of RNA to the mouse liver (luciferase activity of liver homogenate)). Settings: C57BL6 male mice, i.v. 1 mg/kg, Firefly luciferase mRNA-LNPs, liver at 6, 24, 48 hours.
Assay type: in vivo
Description: To measure the effectiveness of LNP-mediated delivery of firefly luciferase containing particles to the liver, LNPs were formulated and characterized as described herein and tested in vitro prior to administration to mice. C57BL6 male mice (Charles River Labs) at approximately 8 weeks of age were dosed with LNPs via intravenous (i.v.) route at 1 mg/kg. Vehicle control animals were dosed i.v. with 300 μL phosphate buffered saline. Mice were injected via intraperitoneal route with dexamethasone at 5 mg/kg 30 minutes prior to injection of LNPs. Tissues were collected at necropsy at or 6, 24, 48 hours after LNP administration with a group size of 5 mice per time point. Liver and other tissue samples were collected, snap-frozen in liquid nitrogen, and stored at −80° C. until analysis.
Frozen liver samples were pulverized on dry ice and transferred to homogenization tubes containing lysing matrix D beads (MP Biomedical). Ice-cold 1× luciferase cell culture lysis reagent (CCLR) (Promega) was added to each tube and the samples were homogenized in a Fast Prep-24 5G Homogenizer (MP Biomedical) at 6 m/s for 40 seconds. The samples were transferred to a clean microcentrifuge tube and clarified by centrifugation. Prior to luciferase activity assay, the protein concentration of liver homogenates was determined for each sample using the Pierce™ BCA Protein Assay Kit (ThermoFisher Scientific) according to the manufacturer's instructions. Luciferase activity was measured with […] (total protein) of liver homogenate using the luciferase assay reagent (Promega) according to manufacturer's instructions using an i3X SpectraMax plate reader (Molecular Devices). […] Reporter activity by the various formulations followed the ranking LIPIDV005>LIPIDV004>LIPIDV003. RNA expression was transient and enzyme levels returned near vehicle background by 48 hours. Post-administration. This assay validated the use of these ionizable lipids and their respective formulations for RNA systems for delivery to the liver.
For `CCCCCCCC(=O)N(CCCN(C)C)C(CCCCCCCCC(=O)OC(CCCCCC)CCCCCC)CCCCCCCCC(=O)OC(CCCCCC)CCCCCC` [LIPIDV005], the “luciferase reporter activity in liver samples” value (from here on “luciferase reporter activity”) was “LIPIDV005>LIPIDV004>LIPIDV003”. In the case of `CCCCCCCCCOC(=O)CCCCCCCN(CCO)CCCCCCCC(=O)OC(CCCCCCCC)CCCCCCCC` [LIPIDV004, Heptadecan-9-yl 8-((2-hydroxyethyl)(8-(nonyloxy)-8-oxooctyl)amino)octanoate], the “luciferase reporter activity” value is reported as “LIPIDV005>LIPIDV004>LIPIDV003”. With `CCCCC/C=C\C/C=C\CCCCCCCC(=O)OCC(COC(=O)CCC(OCCCCCCCC)OCCCCCCCC)COC(=O)OCCCN(CC)CC` (stereo not drawn) [LIPIDV003, (9Z,12Z)-3-((4,4-bis(octyloxy)butanoyl)oxy)-2-((((3-(diethylamino)propoxy)carbonyl)oxy)methyl)propyl octadeca-9,12-dienoate] the “luciferase reporter activity” value was “LIPIDV005>LIPIDV004>LIPIDV003”.
